Data reported in ChEMBL document CHEMBL5726109, “Histone deacetylase inhibitors and compositions and methods of use thereof” (2017).

Target: Histone deacetylase 4 (Homo sapiens, UniProt P56524)
Experiment: Inhibition Assay: 2 μl (200×) of each diluted solution and each control (full activity: 100% DMSO alone or full inhibition 1 mM) is stamped into V-bottomed polypropylene 384-well compound plates using either the Bravo (384-well head from Agilent) or 12.5 μl 16-channel Matrix multi-channel pipette (Matrix Technologies Ltd).

Histone deacetylase 4, sequence (P56524 whole entry): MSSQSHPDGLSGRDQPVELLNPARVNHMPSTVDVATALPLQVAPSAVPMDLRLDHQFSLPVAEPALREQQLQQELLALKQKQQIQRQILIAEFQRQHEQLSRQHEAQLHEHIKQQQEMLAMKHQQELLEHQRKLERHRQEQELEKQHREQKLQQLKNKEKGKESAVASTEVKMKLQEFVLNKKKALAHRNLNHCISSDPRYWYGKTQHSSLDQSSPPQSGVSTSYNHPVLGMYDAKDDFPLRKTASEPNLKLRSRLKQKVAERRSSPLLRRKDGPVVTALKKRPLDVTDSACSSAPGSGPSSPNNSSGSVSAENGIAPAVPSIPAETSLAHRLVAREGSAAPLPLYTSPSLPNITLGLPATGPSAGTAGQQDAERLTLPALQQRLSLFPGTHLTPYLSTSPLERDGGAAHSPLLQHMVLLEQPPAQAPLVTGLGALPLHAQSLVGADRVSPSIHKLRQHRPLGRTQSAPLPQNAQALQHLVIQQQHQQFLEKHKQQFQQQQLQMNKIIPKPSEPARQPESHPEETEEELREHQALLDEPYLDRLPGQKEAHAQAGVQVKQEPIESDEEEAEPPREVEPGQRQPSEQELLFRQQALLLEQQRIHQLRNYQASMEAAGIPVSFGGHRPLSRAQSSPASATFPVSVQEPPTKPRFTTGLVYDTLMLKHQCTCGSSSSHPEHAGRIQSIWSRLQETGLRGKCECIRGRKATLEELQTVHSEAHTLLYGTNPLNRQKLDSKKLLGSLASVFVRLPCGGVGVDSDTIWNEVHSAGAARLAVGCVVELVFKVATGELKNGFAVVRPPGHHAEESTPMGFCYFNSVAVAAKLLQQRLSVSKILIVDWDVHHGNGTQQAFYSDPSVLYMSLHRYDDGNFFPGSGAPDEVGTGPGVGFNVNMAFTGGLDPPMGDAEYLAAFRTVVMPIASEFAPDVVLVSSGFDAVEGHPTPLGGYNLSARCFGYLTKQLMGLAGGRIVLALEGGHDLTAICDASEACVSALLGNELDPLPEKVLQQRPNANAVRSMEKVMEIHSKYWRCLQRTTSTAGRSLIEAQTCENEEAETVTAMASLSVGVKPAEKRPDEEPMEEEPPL

IC50: 2400 nM
Compound: Cc1c(F)cccc1[C@@]1(C(=O)NO)C=C(c2cnccn2)CC1
